From ChEMBL document CHEMBL1201862, “PubChem BioAssay data set” (2004)
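Exposure lasted 48 hours, with cells grown in 96-well plates and compounds tested at five concentrations. GI50 = concentration required for 50% inhibition of growth.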 Calls of active or inactive are those of the source. Cut-off read from the data, not from the text of the source: active = GI50 up to about 1.1 µM and inactive = higher.

Assays:
Assay in all cases: inhibition of tumour cell growth, NCI panel, 48 h
UO-31 = tested on: UO-31
A549 = tested on: A549
786-0 = tested on: 786-0
Hs-578T = tested on: Hs-578T
BT-549 = tested on: BT-549
ACHN = tested on: ACHN
NCI-H522 = tested on: NCI-H522
HCC 2998 = tested on: HCC 2998
PC-3 = tested on: PC-3
SNB-75 = tested on: SNB-75
MDA-N = tested on: MDA-N
RPMI-8226 = tested on: RPMI-8226
SR = tested on: SR
NCI/ADR-RES = tested on: NCI/ADR-RES
MDA-MB-435 = tested on: MDA-MB-435
SF-295 = tested on: SF-295
UACC-62 = tested on: UACC-62
Malme-3M = tested on: Malme-3M
SF-268 = tested on: SF-268
HL-60 = tested on: HL-60
HT-29 = tested on: HT-29
IGROV-1 = tested on: IGROV-1
HOP-92 = tested on: HOP-92
HOP-62 = tested on: HOP-62
MCF7 = tested on: MCF7
OVCAR-3 = tested on: OVCAR-3
OVCAR-8 = tested on: OVCAR-8
T47D = tested on: T47D
SN12C = tested on: SN12C
MDA-MB-231 = tested on: MDA-MB-231
CAKI-1 = tested on: CAKI-1
HCT-15 = tested on: HCT-15
MOLT-4 = tested on: MOLT-4
NCI-H23 = tested on: NCI-H23
EKVX = tested on: EKVX
OVCAR-5 = tested on: OVCAR-5
DU-145 = tested on: DU-145
SK-MEL-28 = tested on: SK-MEL-28
CCRF-CEM = tested on: CCRF-CEM
A498 = tested on: A498
SK-OV-3 = tested on: SK-OV-3
HCT-116 = tested on: HCT-116
UACC-257 = tested on: UACC-257
KM12 = tested on: KM12
TK-10 = tested on: TK-10
K562 = tested on: K562
SK-MEL-2 = tested on: SK-MEL-2
NCI-H226 = tested on: NCI-H226
LOX IMVI = tested on: LOX IMVI
RXF 393 = tested on: RXF 393
SF-539 = tested on: SF-539
SK-MEL-5 = tested on: SK-MEL-5
COLO 205 = tested on: COLO 205
OVCAR-4 = tested on: OVCAR-4
SW-620 = tested on: SW-620
NCI-H460 = tested on: NCI-H460
M14 = tested on: M14
U-251 = tested on: U-251
SNB-19 = tested on: SNB-19

c1cc2nsnc2c2c[nH]cc12
GI50 (UO-31): 25.5 µM (inactive)
GI50 (A549): 64.9 µM (inactive)
GI50 (786-0): > 100 µM (inactive)
GI50 (Hs-578T): 48.1 µM (inactive)
GI50 (BT-549): 49.7 µM (inactive)
GI50 (ACHN): 81.5 µM (inactive)
GI50 (NCI-H522): 56.5 µM (inactive)
GI50 (HCC 2998): > 100 µM (inactive)
GI50 (PC-3): 45.1 µM (inactive)
GI50 (SNB-75): 50.6 µM (inactive)
GI50 (MDA-N): 71.4 µM (inactive)
GI50 (RPMI-8226): > 100 µM (inactive)
GI50 (SR): 96.6 µM (inactive)
GI50 (NCI/ADR-RES): 61.5 µM (inactive)
GI50 (MDA-MB-435): 40.6 µM (inactive)
GI50 (SF-295): > 100 µM (inactive)
GI50 (UACC-62): 42.9 µM (inactive)
GI50 (Malme-3M): > 100 µM (inactive)
GI50 (SF-268): > 100 µM (inactive)
GI50 (HL-60): 67.1 µM (inactive)
GI50 (HT-29): > 100 µM (inactive)
GI50 (IGROV-1): 43.7 µM (inactive)
GI50 (HOP-92): 28.1 µM (inactive)
GI50 (HOP-62): > 100 µM (inactive)
GI50 (MCF7): 34.7 µM (inactive)
GI50 (OVCAR-3): > 100 µM (inactive)
GI50 (OVCAR-8): 34.2 µM (inactive)
GI50 (T47D): 21 µM (inactive)
GI50 (SN12C): > 100 µM (inactive)
GI50 (MDA-MB-231): 56.6 µM (inactive)
GI50 (CAKI-1): > 100 µM (inactive)
GI50 (HCT-15): 99.5 µM
GI50 (MOLT-4): 85.3 µM (inactive)
GI50 (NCI-H23): > 100 µM (inactive)
GI50 (EKVX): 26.9 µM (inactive)
GI50 (OVCAR-5): 47.4 µM (inactive)
GI50 (DU-145): > 100 µM (inactive)
GI50 (SK-MEL-28): > 100 µM (inactive)
GI50 (CCRF-CEM): > 100 µM (inactive)
GI50 (A498): 24.7 µM (inactive)
GI50 (SK-OV-3): > 100 µM (inactive)
GI50 (HCT-116): > 100 µM (inactive)
GI50 (UACC-257): > 100 µM (inactive)
GI50 (KM12): > 100 µM (inactive)
GI50 (TK-10): > 100 µM (inactive)
GI50 (K562): 49.1 µM (inactive)
GI50 (SK-MEL-2): > 100 µM (inactive)
GI50 (NCI-H226): 99.5 µM (inactive)
GI50 (LOX IMVI): > 100 µM (inactive)
GI50 (RXF 393): 52.7 µM (inactive)
GI50 (SF-539): > 100 µM (inactive)
GI50 (SK-MEL-5): 61.4 µM (inactive)
GI50 (COLO 205): > 100 µM (inactive)
GI50 (OVCAR-4): > 100 µM (inactive)
GI50 (SW-620): > 100 µM (inactive)
GI50 (NCI-H460): 86.3 µM (inactive)

CC(=O)Nn1c(=S)[nH]c2ccccc21
GI50 (UO-31): > 100 µM (inactive)
GI50 (A549): > 100 µM (inactive)
GI50 (786-0): > 100 µM (inactive)
GI50 (Hs-578T): > 100 µM (inactive)
GI50 (BT-549): > 100 µM (inactive)
GI50 (ACHN): > 100 µM (inactive)
GI50 (NCI-H522): > 100 µM (inactive)
GI50 (HCC 2998): > 100 µM (inactive)
GI50 (PC-3): > 100 µM (inactive)
GI50 (MDA-N): > 100 µM (inactive)
GI50 (RPMI-8226): > 100 µM (inactive)
GI50 (SR): > 100 µM (inactive)
GI50 (NCI/ADR-RES): > 100 µM (inactive)
GI50 (MDA-MB-435): > 100 µM (inactive)
GI50 (SF-295): > 100 µM (inactive)
GI50 (UACC-62): > 100 µM (inactive)
GI50 (Malme-3M): > 100 µM (inactive)
GI50 (SF-268): > 100 µM (inactive)
GI50 (HL-60): > 100 µM (inactive)
GI50 (HT-29): > 100 µM (inactive)
GI50 (IGROV-1): > 100 µM (inactive)
GI50 (HOP-92): > 100 µM (inactive)
GI50 (HOP-62): > 100 µM (inactive)
GI50 (MCF7): > 100 µM (inactive)
GI50 (OVCAR-8): > 100 µM (inactive)
GI50 (T47D): > 100 µM (inactive)
GI50 (SN12C): > 100 µM (inactive)
GI50 (MDA-MB-231): > 100 µM (inactive)
GI50 (CAKI-1): > 100 µM (inactive)
GI50 (HCT-15): > 100 µM
GI50 (MOLT-4): > 100 µM (inactive)
GI50 (NCI-H23): > 100 µM (inactive)
GI50 (EKVX): > 100 µM (inactive)
GI50 (OVCAR-5): > 100 µM (inactive)
GI50 (DU-145): > 100 µM (inactive)
GI50 (SK-MEL-28): > 100 µM (inactive)
GI50 (CCRF-CEM): > 100 µM (inactive)
GI50 (A498): > 100 µM (inactive)
GI50 (SK-OV-3): > 100 µM (inactive)
GI50 (HCT-116): > 100 µM (inactive)
GI50 (UACC-257): > 100 µM (inactive)
GI50 (KM12): > 100 µM (inactive)
GI50 (TK-10): > 100 µM (inactive)
GI50 (K562): > 100 µM (inactive)
GI50 (M14): > 100 µM (inactive)
GI50 (SK-MEL-2): > 100 µM (inactive)
GI50 (NCI-H226): > 100 µM (inactive)
GI50 (LOX IMVI): > 100 µM (inactive)
GI50 (U-251): > 100 µM (inactive)
GI50 (RXF 393): > 100 µM (inactive)
GI50 (SK-MEL-5): > 100 µM (inactive)
GI50 (COLO 205): > 100 µM (inactive)
GI50 (OVCAR-4): > 100 µM (inactive)
GI50 (SNB-19): > 100 µM (inactive)
GI50 (SW-620): > 100 µM (inactive)
GI50 (NCI-H460): > 100 µM (inactive)
